{"source": "paper PMC1084349", "about": "(BMC Neuroscience, 2005)", "key": {"[1]": {"system": "human TAS1R2-TAS1R3 heteromer", "conditions": "cited from earlier work"}, "[2]": {"system": "hTAS1R2 and tas1r3-hN-rTM", "assay": "Calcium mobilization (FLIPR), chimera with human N-terminus and rat transmembrane region", "format": "cell-based", "source_text": "The receptor chimeras of Tas1r3 were constructed using recombinant PCR. In the first reactions the N-terminal and the C-terminal part containing the seven transmembrane domains of hTAS1R3 and rTas1r3 were amplified from plasmid DNA using Ultra Pfu Polymerase (Stratagene). For the hTAS1R3 and rTas1r3 N-termini the forward vector-anchored primer (CMV: […]) and a reverse gene specific primer ([…]) were used. The hTAS1R3 and rTas1r3 C-terminal part were amplified with forward gene specific primer ([…]) and a reverse vector-anchored primer ([…]). PCR conditions were: 5 min, 94°C, 24 cycles 1 min 94°C, 0.5 min 64°C, 2 min 72°C; 5 min 72°C. The amplicons were purified using the Highpure PCR Product Purification Kit (Roche) and used as template for the second PCR. To create the chimeric receptor tas1r3-hN-rTM, equimolar amounts (~50 ng) of the hTAS1R3 N-terminus and rTas1r3 transmembrane domains were combined without additional oligonucleotides. PCR conditions were: 5 min 94°C; 15 cycles of 2 min 64°C, 2 min 72°C and 0.5 min 94°C; followed by 5 min 64°C and 10 min 72°C. […] These chimeras were cloned into pcDNA5/FRT.\n(§1) The cDNAs were transiently transfected into HEK293T cells stably expressing the chimeric G-protein subunit Gα16gust44 [20] using Lipofectamine 2000 (Invitrogen) according to the manufacturer's protocol. 3–4 hours after transfection, DMEM was replaced by low-glucose DMEM supplemented with GlutaMAX and 10% dialyzed FBS (Invitrogen). 22–44 hours later, cells were loaded for 1 hour with the calcium sensitive dye Fluo4-AM (2 μg/ml in DMEM, Molecular Probes). Cells were washed 3x in solution C1 (130 mM NaCl, 5 mM KCl, 10 mM Hepes, 2 mM CaCl2, and 5 mM Glucose, pH 7,4). Calcium mobilization was monitored by an automated fluorometric imaging plate reader (FLIPR, Molecular Devices). Ligands (Sigma-Aldrich, Merck) were dissolved in C1 solution. All data were collected from at least two independent experiments carried out in triplicate. The obtained calcium signals were corrected for the response of mock transfected cells and normalized to the fluorescence of cells prior to the stimulus using ΔF/F=(F-F0)/F0. […]\nAll sweeteners were used at concentrations which were close to the maximal obtainable signal. (c) Alignment of amino acid sequences of the human, rat, and mouse Tas1r3 transmembrane regions. Color code: white, identical; grey, conservative; dark-grey, similar; black, non-similar. TM, predicted transmembrane domain, indicated by a black bar. Dots indicate the location of the primer used to generate the chimeric rat-human Tas1r3 receptors. Asterisks denote amino acid positions that are identical in rat and mouse but variable between humans and rodents and are located in the extracellular loops or the upper part of the transmembran regions. Boxes indicate the several rTas1r3 mutants m1 – m7, including the amino acid substitutions. m6/1 – m6/3 signified the reconverted amino acid of mutant m6."}, "[3]": {"system": "rTas1r2 and rTas1r3 mutants m1 – m7 other than m6", "assay": "Calcium mobilization (FLIPR), other rTas1r3 mutants (m1-m5, m7)", "format": "cell-based, rat", "conditions": "stimulation with 1 mM stevioside; 1.0 mM lactisole", "source_text": "Receptor mutants were generated by site directed mutagenesis according to the QuikChange protocol (Stratagene). The forward and reverse complement primers contained the desired mutations and annealed to the same sequence on opposite strands of the plasmids. The following rTas1r3 receptor variants were generated: m1: S576L; m2: R632Q, S635P, S637Q; m3: M644L A645S; m4: A702T; m5: Q717H, V718M, V723A, E725V; m6: L735F, V738A, I740A. m6/1: V738A, I740A, m6/2: L735F, I740A, m6/3: L735F, V738A. m7: A793V, Y794L, Q795R. Subsequently a rTas1r3-V738A variant was generated. All constructs were checked by sequencing.\nas §1, with “Cells were washed 3x in solution C1 (130 mM NaCl, 5 mM KCl, 10 mM Hepes, 2 mM CaCl2, and 5 mM Glucose, pH 7,4).” left out, “Ligands (Sigma-Aldrich, Merck) were dissolved in C1 solution. All data were collected from at least two independent experiments carried out in triplicate.” left out"}, "sweet taste [4]": {"system": "sweet taste", "set-up": "method as in PMID 11917125, PMID 7812727, PMID 12379598, PMID 10480680", "conditions": "humans; cited from earlier work"}, "sweet taste [5]": {"system": "sweet taste", "set-up": "method as in PMID 11917125, PMID 7812727, PMID 12379598, PMID 10480680", "conditions": "rats; cited from earlier work"}, "hTAS1R2-hTAS1R3": {"molecular_target": "T1, hTAS1R2-hTAS1R3 (Homo sapiens, UniProt Q7RTX0+Q8TE23)", "T1 sequence (Q8TE23 20-839)": "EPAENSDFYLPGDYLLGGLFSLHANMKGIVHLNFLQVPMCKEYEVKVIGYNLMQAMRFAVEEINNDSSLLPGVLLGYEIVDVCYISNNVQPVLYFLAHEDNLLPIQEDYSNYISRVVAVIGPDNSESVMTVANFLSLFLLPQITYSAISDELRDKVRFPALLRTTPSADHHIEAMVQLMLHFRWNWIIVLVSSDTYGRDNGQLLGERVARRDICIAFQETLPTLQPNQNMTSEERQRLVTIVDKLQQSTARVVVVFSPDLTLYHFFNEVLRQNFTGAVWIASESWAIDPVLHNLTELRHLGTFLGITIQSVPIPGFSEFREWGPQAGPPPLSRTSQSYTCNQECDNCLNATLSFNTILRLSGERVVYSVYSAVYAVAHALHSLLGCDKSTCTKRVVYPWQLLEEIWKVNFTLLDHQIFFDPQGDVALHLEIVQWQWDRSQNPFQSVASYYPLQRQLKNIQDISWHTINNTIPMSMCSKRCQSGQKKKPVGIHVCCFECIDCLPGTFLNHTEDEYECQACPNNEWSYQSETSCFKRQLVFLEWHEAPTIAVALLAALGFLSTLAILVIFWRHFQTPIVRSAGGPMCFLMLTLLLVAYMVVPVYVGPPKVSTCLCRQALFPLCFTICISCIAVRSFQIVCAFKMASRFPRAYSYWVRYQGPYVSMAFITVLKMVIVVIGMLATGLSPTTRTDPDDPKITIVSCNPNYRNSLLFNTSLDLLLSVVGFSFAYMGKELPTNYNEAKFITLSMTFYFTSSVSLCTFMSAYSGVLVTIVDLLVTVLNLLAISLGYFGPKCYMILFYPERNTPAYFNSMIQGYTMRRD", "T1 sequence (Q7RTX0 21-852)": "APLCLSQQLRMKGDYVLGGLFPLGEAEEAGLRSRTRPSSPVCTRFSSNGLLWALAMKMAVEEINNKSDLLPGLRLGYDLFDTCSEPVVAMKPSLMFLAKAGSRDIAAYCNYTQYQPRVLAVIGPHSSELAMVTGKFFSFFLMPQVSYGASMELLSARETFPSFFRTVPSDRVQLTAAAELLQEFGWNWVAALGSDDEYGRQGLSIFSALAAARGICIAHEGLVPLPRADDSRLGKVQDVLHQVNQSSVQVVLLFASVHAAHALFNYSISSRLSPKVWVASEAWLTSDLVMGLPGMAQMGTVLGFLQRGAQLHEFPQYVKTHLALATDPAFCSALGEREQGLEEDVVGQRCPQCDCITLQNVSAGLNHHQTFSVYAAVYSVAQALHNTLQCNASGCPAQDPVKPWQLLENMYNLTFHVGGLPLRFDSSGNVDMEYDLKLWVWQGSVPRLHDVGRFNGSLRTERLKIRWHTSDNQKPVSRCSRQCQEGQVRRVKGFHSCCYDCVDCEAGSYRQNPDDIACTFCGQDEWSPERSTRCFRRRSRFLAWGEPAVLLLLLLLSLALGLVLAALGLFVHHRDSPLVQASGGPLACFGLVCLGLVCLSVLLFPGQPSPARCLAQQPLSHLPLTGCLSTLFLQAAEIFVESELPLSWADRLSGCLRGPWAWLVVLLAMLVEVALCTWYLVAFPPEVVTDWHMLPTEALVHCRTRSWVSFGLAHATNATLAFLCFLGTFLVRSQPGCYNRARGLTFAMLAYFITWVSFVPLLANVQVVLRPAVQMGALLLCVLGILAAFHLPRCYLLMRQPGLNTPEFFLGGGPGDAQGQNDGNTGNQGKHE", "assay": "Calcium mobilization (FLIPR) in transfected HEK293T-Gα16gust44 cells, human sweet receptor", "conditions": "asp 15 mM; cyc 30 mM; neo 0.1 mM; sac 10 mM; suc 100 mM; stev 1 mM"}}, "note": "Counter-ions that a name gives are not always drawn. Like-named read-outs stand apart in the source and are kept apart here."}
{"molecule": "monellin", "values": [{"measurement": "activation of heteromer", "setting": "[1]", "value": "only activate the human"}]}
{"molecule": "COc1ccc(OC(C)C(=O)O)cc1", "note": "(stereo not drawn) [lactisole, 2-(4-methoxphenoxy) propanoic acid sodium salt]", "values": [{"measurement": "lactisole sensitivity of agonist responses", "setting": "[2]; 1.0 mM lactisole, all four agonists", "value": "lactisole insensitive"}, {"measurement": "lactisole sensitivity conferred to the heteromer", "setting": "[3]", "value": "did not"}, {"measurement": "suppression of the sweet taste of various compounds", "setting": "sweet taste [4]", "value": "suppresses the sweet taste"}, {"measurement": "suppression of the sweet taste of various compounds", "setting": "sweet taste [5]", "value": "not in rats"}]}
{"molecule": "brazzein: sweet protein (QDKCKKVYENYPVSKCQLANQCNYDCKLDKHARSGECFYDEKRNLQCICDYCEY; UniProt P56552 1-54, looked up)", "values": [{"measurement": "activation of heteromer", "setting": "[1]", "value": "only activate the human"}]}
{"molecule": "thaumatin", "values": [{"measurement": "activation of heteromer", "setting": "[1]", "value": "only activate the human"}]}
{"molecule": "O=C1NS(=O)(=O)c2ccccc21", "note": "[saccharin]", "values": [{"measurement": "activation of receptor (calcium response)", "setting": "[2]; asp 15 mM, cyc 30 mM, neo 0.1 mM, sac 10 mM, suc 100 mM, stev 1 mM", "value": "responded"}, {"measurement": "activation of receptor (calcium response)", "setting": "hTAS1R2-hTAS1R3", "value": "elevated intracellular calcium levels"}]}
